Measured values published in US7569729B2, “Stable atomoxetine hydrochloride, a process for the preparation thereof, and an analytical control of its stability” (Teva Pharmaceutical Fine Chemicals S.R.L., priority 2005, dated 2009).
Several values for one entry are separate records, joined by “and”; a condition that tells them apart may be missing. Equal values may be shown once. Where a name gives a salt, the structure may show the parent alone.

Assays:
[1] = Determination of pH of Atomoxetine Hydrochloride samples in aqueous solution; format: physicochemical; conditions: for pH of 2% (w/V) aqueous solution / aqueous pH test results: Hydrochloride; for aqueous pH test results: samples of the 40° C. stability test; for pH (2% in H2O): wet samples after filtration from crystallization medium
Experimental: The present invention provides a method for analyzing Atomoxetine Hydrochloride stability, comprising determining the pH of a sample of Atomoxetine Hydrochloride in aqueous solution. The process comprises dissolving Atomoxetine Hydrochloride in water at a temperature of about 20° C. to about 30° C. to obtain a solution and measuring the pH. Preferably, the dissolution of Atomoxetine Hydrochloride is accelerated by using a sonication. Preferably, the pH is measured with a glass electrode.
A 2 g sample of Atomoxetine Hydrochloride is dissolved in 100 ml of deionized water at temperature between about 20° C. and about 30° C. with sonication if required to obtain a complete solution. The pH is measured with a glass electrode at temperature of between about 20° C. and about 30° C.

[2] = Stressed thermal stability test (70° C. for 58 hours), impurities by HPLC; format: physicochemical
From the text: However, the presence of free HCl in Atomoxetine Hydrochloride, which is easily detected by a pH test of a solution of Atomoxetine Hydrochloride in water, results in significant degradation of the Atomoxetine Hydrochloride, as described below.

[3] = Determination of pH of Atomoxetine Hydrochloride samples in aqueous solution; format: physicochemical; conditions: Example 2, after first water slurry and wash, 200 mg in 10 ml water
[4] = Stability test (40° C., five days), impurities by HPLC; format: physicochemical
Experimental: At lower temperatures, e.g., 40° C., the stability of Atomoxetine Hydrochloride samples, having a water solution pH test of less than 4 are compromised, while Atomoxetine Hydrochloride samples, having a water solution pH test of greater than 4, are stable.

[5] = Contact of dry Atomoxetine Hydrochloride with HCl gas flow at room temperature, impurities by HPLC
[6] = Stability test (40° C., 75% RH), impurities by HPLC; format: physicochemical
[7] = Drying wet Atomoxetine Hydrochloride in a vacuum oven at 70° C., impurities by HPLC; format: physicochemical; conditions: HPLC results, weight percent
From the text: These experimental results are in agreement with the previously described stability data.

[8] = End of test time, Hydrochloride
[9] = Before contact with HCl gas flow
[10] = After contact with HCl gas flow, room temperature
[11] = After drying in vacuum oven at 70° C.

pH of 2% (w/V) aqueous solution [1]	Impurity (a) (HPLC A %) [2, 8]	Impurity (b) (HPLC A %) [2, 8]	Impurity (c) (HPLC A %) [2, 8]	Impurity (a) (HPLC A %) ([2]; Time zero)	Impurity (b) (HPLC A %) ([2]; Time zero)	Impurity (c) (HPLC A %) ([2]; Time zero)	aqueous pH test results [1]	Impurity (a) (HPLC A %) [4, 8]	Impurity (b) (HPLC A %) [4, 8]	Impurity (c) (HPLC A %) [4, 8]	Impurity (b) (HPLC A %) ([4]; Time zero)	Impurity (a) (HPLC A %) ([4]; Time zero, Hydrochloride)	Impurity (c) (HPLC A %) ([4]; Time zero, Hydrochloride)	SMILES	further results
5.8	not detected	not detected	not detected	not detected	not detected	not detected	–	–	–	–	–	–	–	CNCCC(Oc1ccccc1C)c1ccccc1 (single isomer, unassigned) [Sample 2, Atomoxetine Hydrochloride]	–
–	–	–	–	–	–	–	–	–	–	–	–	–	–	CNCC[C@@H](Oc1ccccc1C)c1ccccc1 [Atomoxetine Hydrochloride, (R)(−)-n-methyl-3-(2-methylphenoxy)-3-phenylpropylamine]	pH [3]: 4.4; pH ([1]; Example 1, wet solids of two separate preparations, 2 g in 100 ml water): 2.39 and 2.40; pH ([1]; Example 2, after second water slurry and wash, wet, 2 g in 100 ml water): 5.9; pH ([1]; Example 3, after acetone washing and drying, about 2 percent w/V in water): 4.6
6.0	not detected	not detected	not detected	not detected	not detected	not detected	–	–	–	–	–	–	–	CNCCC(Oc1ccccc1C)c1ccccc1 (single isomer, unassigned) [Sample 3, Atomoxetine Hydrochloride]	–
–	–	–	–	–	–	–	4.8	not detected	not detected	not detected	not detected	not detected	not detected	CNCCC(Oc1ccccc1C)c1ccccc1 (stereo not shown) [Sample 9, Atomoxetine Hydrochloride]	–
5.9	not detected	not detected	not detected	not detected	not detected	not detected	–	–	–	–	–	–	–	CNCCC(Oc1ccccc1C)c1ccccc1 (single isomer, unassigned) [Sample 4, Atomoxetine Hydrochloride]	–
–	–	–	–	–	–	–	–	–	–	–	–	–	–	CNCCC(Oc1ccccc1C)c1ccccc1 (stereo not shown) [Sample 12, Atomoxetine Hydrochloride]	aqueous pH test result [1, 9]: 6.1; aqueous pH test result ([1]; after contact with HCl gas flow): 2.8; Impurity (a) [5, 10]: 0.10% HPLC A %; Impurity (b) [5, 10]: 0.032% HPLC A %; Impurity (c) [5, 10]: 1.54% HPLC A %; Impurity (a) [5, 9]: not detected; Impurity (b) [5, 9]: not detected; Impurity (c) [5, 9]: not detected
–	–	–	–	–	–	–	–	–	–	–	–	–	–	CNCCC(Oc1ccccc1C)c1ccccc1 (stereo not shown) [Sample 6, Atomoxetine Hydrochloride]	pH (2% in H2O) [1]: 2.4
–	–	–	–	–	–	–	4.4	not detected	not detected	not detected	not detected	not detected	not detected	CNCCC(Oc1ccccc1C)c1ccccc1 (stereo not shown) [Sample 8, Atomoxetine Hydrochloride]	–
–	–	–	–	–	–	–	–	–	–	–	–	–	–	CNCCC(Oc1ccccc1C)c1ccccc1 (stereo not shown) [Sample 11, Atomoxetine Hydrochloride]	Impurity (a) (HPLC A %) ([6]; 1 month): 0.02 HPLC A %; Impurity (b) (HPLC A %) ([6]; 1 month): 0.006 HPLC A %; Impurity (c) (HPLC A %) ([6]; 1 month): not detected; Impurity (a) (HPLC A %) ([6]; 2 months): 0.02 HPLC A %; Impurity (b) (HPLC A %) ([6]; 2 months): 0.007 HPLC A %; Impurity (c) (HPLC A %) ([6]; 2 months): not detected; Impurity (a) (HPLC A %) ([6]; 3 months): 0.02 HPLC A %; Impurity (b) (HPLC A %) ([6]; 3 months): 0.003 HPLC A %; Impurity (c) (HPLC A %) ([6]; 3 months): not detected; Impurity (a) (HPLC A %) ([6]; 6 month): 0.01 HPLC A %; Impurity (b) (HPLC A %) ([6]; 6 month): not detected; Impurity (c) (HPLC A %) ([6]; 6 month): not detected; Impurity (a) (HPLC A %) ([6]; Time zero): 0.01 HPLC A %; Impurity (b) (HPLC A %) ([6]; Time zero): not detected; Impurity (c) (HPLC A %) ([6]; Time zero): not detected
–	–	–	–	–	–	–	6.1	not detected	not detected	not detected	not detected	not detected	not detected	CNCCC(Oc1ccccc1C)c1ccccc1 (stereo not shown) [Sample 10, Atomoxetine Hydrochloride]	–
2.4	10.5% HPLC A %	14.2% HPLC A %	26.2% HPLC A %	not detected	not detected	not detected	–	–	–	–	–	–	–	CNCCC(Oc1ccccc1C)c1ccccc1 (single isomer, unassigned) [Sample 1, Atomoxetine Hydrochloride]	–
–	–	–	–	–	–	–	2.4	0.633% HPLC A %	0.0482% HPLC A %	0.689% HPLC A %	not detected	0.014% HPLC A %	0.018% HPLC A %	CNCCC(Oc1ccccc1C)c1ccccc1 (stereo not shown) [Sample 7, Atomoxetine Hydrochloride]	–
–	–	–	–	–	–	–	–	–	–	–	–	–	–	CNCCC(Oc1ccccc1C)c1ccccc1 (stereo not shown) [Sample 5, Atomoxetine Hydrochloride]	Impurity (a) [7, 11]: 0.31%; Impurity (b) [7, 11]: 0.04%; Impurity (c) [7, 11]: 0.12%; Impurity (a) ([7]; Before drying): not detected; Impurity (b) ([7]; Before drying): not detected; Impurity (c) ([7]; Before drying): not detected; pH (2% in H2O) [1]: 2.4
